From patent publication US5597803A, “Bradykinin peptides with modifications at the N terminus” (Hoechst Aktiengesellschaft, priority 1992, dated 1997)

Assays:
[1] = biological target: T1, isolated guinea pig pulmonary artery (Cavia porcellus, UniProt O70526); assay: bradykinin-antagonistic action on the isolated guinea pig pulmonary artery (inhibition of bradykinin-induced contraction); format: cell-based; conditions: contraction by 2×10^-7 mol/l bradykinin; peptides 5×10^-8 -1×10^-5 mol/l for 10 minutes; calculated from dose-effect plots; unit inferred
T1 sequence (O70526 1-372): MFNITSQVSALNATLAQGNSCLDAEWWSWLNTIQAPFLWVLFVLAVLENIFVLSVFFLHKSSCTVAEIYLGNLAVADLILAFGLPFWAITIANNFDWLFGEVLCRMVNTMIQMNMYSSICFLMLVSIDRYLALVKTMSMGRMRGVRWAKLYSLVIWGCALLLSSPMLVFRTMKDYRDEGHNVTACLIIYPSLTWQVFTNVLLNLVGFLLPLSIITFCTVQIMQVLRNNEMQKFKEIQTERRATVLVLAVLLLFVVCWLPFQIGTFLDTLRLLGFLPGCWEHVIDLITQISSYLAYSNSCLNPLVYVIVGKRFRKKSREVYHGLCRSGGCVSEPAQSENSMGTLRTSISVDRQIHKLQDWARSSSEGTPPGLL
Source text: The peptides according to the invention have, singly or in combination, a bradykinin-antagonistic action which can be tested in various models (see Handbook of Exp. Pharmacol. Vol. 25, Springer Verlag, 1970, pages 53-55), for example on the isolated rat uterus, on the guinea pig ileum or on the isolated guinea pig pulmonary artery.
(§1) To test the peptides according to the invention on the isolated pulmonary artery, guinea pigs (Dunkin Hartley) weighing 400-450 g are sacrificed by a blow to the back of the neck. The thorax is opened and the pulmonary artery is carefully dissected out. The surrounding tissue is cautiously removed and the pulmonary artery is cut open in a spiral at an angle of 45°. The strip of vessel 2.5 cm long and 3-4 mm wide is fixed in an organ bath which has a capacity of 10 ml and is filled with Ringer solution.
(§2) 95% O2 and 5% CO2 is bubbled through the solution, which is heated to 37° C. The pH is 7.4 and the preload on the strip of vessel is 1.0 g.
(§3) The isometric contraction changes are detected using a lever attachment and an HF modem (position sensor) from Hugo Sachs and are recorded on a potentiometric recorder (BEC, Goerz Metrawatt SE 460).
The experiment is started after equilibration for 1 hour. After the strips of vessel have reached their maximum sensitivity to 2×10^-7 mol/1 bradykinin--bradykinin leads to contraction of the strips of vessel--the peptides are left to act in doses of 5×10^-8 -1×10^-5 mol/l for 10 minutes each and, after renewed addition of bradykinin, the decrease in the effect of bradykinin is compared with the control.

[2] = biological target: T1, isolated guinea pig pulmonary artery; assay: duration of action (T50) on the isolated pulmonary artery after replacement of the peptide-containing buffer; format: cell-based; conditions: time until strips again reach maximum sensitivity to 2×10^-7 mol/l bradykinin after washout; measure of duration of action; found by calculation
Description: as §1, §2, §3
The experiment is started after equilibration for 1 hour. […]
For some selected compounds, the time until the strips of vessel have again reached their maximum sensitivity to 2×10^-7 mol/l bradykinin after replacement of the peptide-containing by a "simple" buffer was also determined in the experimental arrangement described above. […]

[3] = tested on: carrageenan-induced edema of the rat paw; assay: carrageenan-induced edema of the rat paw, systemic administration; format: in vivo; conditions: 15 min before carrageenan, male Sprague-Dawley rats, mean and standard deviation
Description: Antiinflammatory effect after systemic administration: carrageenan-induced edema of the rat paw
The test chosen for the acute systemic antiinflammatory effect is the carrageenan-induced edema of the rat paw by the method described by Winter C. A. et al., Proc. Soc. Exp. Biol. (N.Y.), 111, 544 (1962). Male Sprague-Dawley rats weighing about 170 g in groups of 5 animals receive the substances to be tested subcutaneously dissolved in distilled water (1 ml/kg bodyweight). 15 min later, after measurement of the initial volume of the paw, 0.1 ml of 0.5% strength carrageenan solution is injected under ether anesthesia into the left rear paw. The increase in volume of the swelling is measured 3 and 6 h later, Controls receive only the vehicle. The paw volume is reported in ml (mean and standard deviation).

Row | IC50 [1] [nM] | T50 (pulmonary artery) [2] [min] | Substance | Increase in paw volume after 3 h ([3]; 0.1 mg/kg subcutaneously) [mL] | Increase in paw volume after 6 h ([3]; 0.1 mg/kg subcutaneously) [mL] | Increase in paw volume after 3 h ([3]; 1.0 mg/kg subcutaneously) [mL] | Increase in paw volume after 6 h ([3]; 1.0 mg/kg subcutaneously) [mL]
1 | 25 | – | Fmoc-(4-aminocyclohexylcarbonyl)-D-Arg-Arg-Pro-Hyp-Gly-Thi-Ser-D-Tic-Oic-Arg-OH [Example 15] | – | – | – | –
2 | 8.5 | 253.3 | Fmoc-Aoc-D-Arg-Arg-Pro-Hyp-Gly-Thia-Ser-D-Tic-Oic-Arg-OH [Example 2] | 0.13 ± 0.04 | 0.29 ± 0.08 | 0.19 ± 0.06 | 0.27 ± 0.06
3 | 22 | – | Fmoc-D-Aoc-Arg -Arg-Pro-Hyp-Gly-Thi-Ser-D-Tic-Oic-Arg-OH [Example 7] | – | – | – | –
